Measurements taken from PubChem BioAssay (NCI).
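Tested at 5 concentrations; 48 h exposure; 96-well plates; endpoints linearly interpolated, else capped at highest concentration. GI50: concentration for 50% inhibition of growth. Definition used: TGI = concentration required for complete inhibition of growth.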

Assays:
Assay in all cases: growth of human tumour cells (NCI), 48 h
SF-539 CNS = system: SF-539 CNS
K-562 leukemia = system: K-562 leukemia
UO-31 renal = system: UO-31 renal
OVCAR-4 ovarian = system: OVCAR-4 ovarian
SK-MEL-28 melanoma = system: SK-MEL-28 melanoma
IGROV1 ovarian = system: IGROV1 ovarian
HOP-92 NSCLC = system: HOP-92 NSCLC
SN12C renal = system: SN12C renal
SK-MEL-5 melanoma = system: SK-MEL-5 melanoma
A498 renal = system: A498 renal

Structure (SMILES)	TGI (SF-539 CNS)	TGI (K-562 leukemia)	TGI (UO-31 renal)	TGI (OVCAR-4 ovarian)	TGI (SK-MEL-28 melanoma)	TGI (IGROV1 ovarian)	TGI (HOP-92 NSCLC)	TGI (SN12C renal)	TGI (SK-MEL-5 melanoma)	GI50 (SF-539 CNS)	GI50 (K-562 leukemia)	GI50 (UO-31 renal)	GI50 (OVCAR-4 ovarian)	GI50 (SK-MEL-28 melanoma)	GI50 (IGROV1 ovarian)	GI50 (HOP-92 NSCLC)	GI50 (SN12C renal)	GI50 (SK-MEL-5 melanoma)	GI50 (A498 renal)	TGI (A498 renal)
COc1ccc2nc(-c3cccs3)cc(C(O)CN3CCSCC3)c2c1 (stereo unspecified)	51.3 µM	51.5 µM	60.8 µM	> 100 µM	77.4 µM	> 100 µM	62.1 µM	87.7 µM	37.6 µM	–	–	–	–	–	–	–	–	–	–	–
Nc1ccccc1C#C/C=C\C#Cc1cccs1	17.8 µM	> 100 µM	> 43.5 µM	> 50.7 µM	> 67.5 µM	> 39.6 µM	36.6 µM	16.7 µM	17.6 µM	5.6 µM	3.53 µM	8.77 µM	16.2 µM	24.6 µM	6.36 µM	6.4 µM	4.62 µM	4.36 µM	–	–
COC(C(=O)[O][Ge]([CH3])([CH3])[CH3])c1ccccc1 (stereo unspecified)	> 100 µM	–	> 100 µM	> 100 µM	> 100 µM	> 100 µM	> 100 µM	> 100 µM	> 100 µM	> 100 µM	–	> 100 µM	> 100 µM	> 100 µM	> 100 µM	> 100 µM	> 100 µM	> 100 µM	> 100 µM	> 100 µM
COC(=O)C(=O)C1(CCC(C)=O)c2ccccc2-c2c(C)ccc(C)c21 (stereo unspecified)	–	> 100 µM	> 100 µM	> 100 µM	> 100 µM	> 100 µM	–	> 100 µM	65.2 µM	–	–	–	–	–	–	–	–	–	–	> 100 µM
O=C(O)/C=C\C(=O)N1C/C(=C\c2ccccc2Cl)C(=O)/C(=C/c2ccccc2Cl)C1	8.24 µM	82 µM	3.72 µM	13.6 µM	9.09 µM	11.2 µM	15.5 µM	9.31 µM	12 µM	3.01 µM	2.44 µM	1.98 µM	3.37 µM	2.88 µM	3.66 µM	4.43 µM	2.93 µM	3.03 µM	–	–
COc1ccc(/C=C(/C#N)C(N)=O)cc1OC	> 100 µM	> 100 µM	–	> 100 µM	> 100 µM	> 100 µM	> 100 µM	> 100 µM	> 100 µM	–	–	–	–	–	–	–	–	–	–	> 100 µM
NC1C[C@H](n2cc(/C=C/Br)c(=O)[nH]c2=O)C[C@@H]1CO (stereo partly specified)	> 100 µM	> 100 µM	> 100 µM	> 100 µM	> 100 µM	–	–	> 100 µM	–	–	–	–	–	–	–	–	–	–	–	> 100 µM
Nc1ccn(CCNCCn2cnc3nc(N)[nH]c(=O)c32)c(=O)n1	> 100 µM	> 100 µM	> 100 µM	> 100 µM	> 100 µM	> 100 µM	> 100 µM	> 100 µM	–	–	–	–	–	–	–	–	–	–	–	> 100 µM
COC(=O)[C@@]1(C)CC[C@]2(C)CC[C@]3(C)C4=CC=C5C(=CC(=O)C(O)=C5C)[C@]4(C)[C@@H](O)C[C@@]3(C)[C@@H]2C1	28.8 µM	20.9 µM	16.2 µM	19.7 µM	19.7 µM	19.1 µM	23.2 µM	20.7 µM	32.6 µM	15.7 µM	4.25 µM	5.8 µM	8.38 µM	9.43 µM	6.73 µM	11.6 µM	9.65 µM	16.5 µM	–	–
Cc1ccccc1[P+](Cc1ccccc1)(c1ccccc1)c1ccccc1	24.7 µM	> 100 µM	69.2 µM	> 100 µM	37.9 µM	32.1 µM	–	90.3 µM	2.29 µM	2.34 µM	1.08 µM	14.2 µM	1.91 µM	2.91 µM	1.8 µM	–	2.85 µM	0.863 µM	1.46 µM	7.2 µM
COc1cc(/C=C/c2cc(O)c3cc(C(C)=O)c(=O)oc3c2)cc2c1O[C@]1(C)CC[C@@H](O)C(C)(C)[C@H]1C2	> 23.6 µM	> 100 µM	> 26.2 µM	> 74.3 µM	> 21.4 µM	> 66.1 µM	> 28.5 µM	> 68 µM	–	–	–	–	> 43 µM	–	> 25.9 µM	–	> 33 µM	–	–	> 28.2 µM
Cc1ccc(C(=O)c2nnc(C(=O)c3ccc(C)cc3)nn2)cc1	> 100 µM	55.8 µM	> 100 µM	> 100 µM	> 100 µM	> 100 µM	> 100 µM	> 100 µM	> 100 µM	–	–	–	–	–	–	–	–	–	–	–
COc1ccc(-c2ccc(/C=N/n3c(COc4ccc(Cl)cc4Cl)nn(CN4CCOCC4)c3=S)o2)c([N+](=O)[O-])c1	62.9 µM	46.6 µM	> 100 µM	78.8 µM	86.8 µM	–	27.6 µM	67.7 µM	–	18.8 µM	18.2 µM	42.7 µM	21.7 µM	27.7 µM	–	0.829 µM	24.5 µM	–	–	–
COc1ccc(OC)c(/C=C2\SC(=S)NC2=O)c1	49.6 µM	> 100 µM	> 100 µM	> 100 µM	> 100 µM	> 100 µM	55.4 µM	77.4 µM	49.2 µM	17.4 µM	42.5 µM	33.6 µM	62.9 µM	42.4 µM	31.2 µM	16 µM	24.8 µM	21.2 µM	–	–
COc1ccc(-c2nc3sc4c(c3c(=O)[nH]2)CCCCCC4)cc1	> 33.2 µM	> 33.2 µM	> 33.2 µM	–	> 33.2 µM	> 33.2 µM	14.5 µM	> 33.2 µM	> 33.2 µM	2.56 µM	0.229 µM	> 33.2 µM	–	6.67 µM	6.38 µM	1.4 µM	> 33.2 µM	2.52 µM	0.897 µM	> 33.2 µM
C[C@@H]1C[C@H]2CC[C@H](O2)[C@H](C)C(=O)O[C@@H](C)C[C@@H]2CC[C@@H](O2)[C@@H](C)C(=O)O[C@H](C)C[C@H]2CC[C@H](O2)[C@H](C)C(=O)O[C@@H](C)C[C@@H]2CC[C@@H](O2)[C@@H](C)C(=O)O1	> 100 µM	> 33.8 µM	–	–	> 100 µM	32.4 µM	0.524 µM	18.9 µM	0.401 µM	–	–	–	–	–	–	–	–	–	–	> 19.7 µM
